pIC50: −log10 of the molar value. Blank lines part the entries; values can stand above or below the compound they belong to.
What was measured:
HepG2 = test: Antiproliferative activity against […] HepG2 cells after 48 hrs by MTT assay; type: functional, cell-based; conditions: Homo sapiens, HepG2, 48 h
MCF7 = test: Antiproliferative activity against human MCF7 cells after 48 hrs by MTT assay; type: functional, cell-based; conditions: MCF7, 48 h
Tubulin = Tubulin (Bos taurus, UniProt Q6B856+Q862L2+Q862F3); test: Inhibition of bovine brain tubulin polymerization after 20 mins by turbidimetric method
A549 [1] = test: Antiproliferative activity against human A549 cells after 48 hrs by MTT assay; type: functional, cell-based; conditions: A549, 48 h
A549 [2] = test: Cell cycle arrest in human A549 cells assessed as accumulation at G2 phase at 0.01 uM after 48 hrs by flow cytometry (reference value: 6.75 %); type: functional
A549 [3] = test: Induction of apoptosis in human A549 cells assessed as necrotic cells at 0.01 uM after 24 hrs using Annexin-V/PI staining by flow cytometry (reference value: 3.11 %); type: functional
A549 [4] = test: Cell cycle arrest in human A549 cells assessed as accumulation at S phase at 0.01 uM after 48 hrs by flow cytometry (reference value: 13.83 %); type: functional
A549 [5] = test: Induction of apoptosis in human A549 cells assessed as necrotic cells at 0.05 uM after 24 hrs using Annexin-V/PI staining by flow cytometry (reference value: 3.11 %); type: functional
A549 [6] = test: Induction of apoptosis in human A549 cells assessed as late apoptotic cells at 0.01 uM after 24 hrs using Annexin-V/PI staining by flow cytometry (reference value: 4.01 %); type: functional
A549 [7] = test: Induction of apoptosis in human A549 cells assessed as viable cells at 0.05 uM after 24 hrs using Annexin-V/PI staining by flow cytometry (reference value: 91.0 %); type: functional; conditions: A549, 24 h, read-out: Activity
A549 [8] = test: Cell cycle arrest in human A549 cells assessed as accumulation at S phase at 0.1 uM after 48 hrs by flow cytometry (reference value: 13.83 %); type: functional
A549 [9] = test: Cell cycle arrest in human A549 cells assessed as accumulation at G1 phase at 0.05 uM after 48 hrs by flow cytometry (reference value: 79.42 %); type: functional
A549 [10] = test: Induction of apoptosis in human A549 cells assessed as necrotic cells at 0.1 uM after 24 hrs using Annexin-V/PI staining by flow cytometry (reference value: 3.11 %); type: functional
A549 [11] = test: Induction of apoptosis in human A549 cells assessed as early apoptotic cells at 0.01 uM after 24 hrs using Annexin-V/PI staining by flow cytometry (reference value: 1.92 %); type: functional
A549 [12] = test: Cell cycle arrest in human A549 cells assessed as accumulation at G1 phase at 0.1 uM after 48 hrs by flow cytometry (reference value: 79.42 %); type: functional
A549 [13] = test: Induction of apoptosis in human A549 cells assessed as early apoptotic cells at 0.05 uM after 24 hrs using Annexin-V/PI staining by flow cytometry (reference value: 1.92 %); type: functional
A549 [14] = test: Induction of apoptosis in human A549 cells assessed as viable cells at 0.01 uM after 24 hrs using Annexin-V/PI staining by flow cytometry (reference value: 91.0 %); type: functional; conditions: A549, 24 h, read-out: Activity
A549 [15] = test: Cell cycle arrest in human A549 cells assessed as accumulation at G2 phase at 0.05 uM after 48 hrs by flow cytometry (reference value: 6.75 %); type: functional
A549 [16] = test: Cell cycle arrest in human A549 cells assessed as accumulation at G1 phase at 0.01 uM after 48 hrs by flow cytometry (reference value: 79.42 %); type: functional
A549 [17] = test: Induction of apoptosis in human A549 cells assessed as viable cells at 0.1 uM after 24 hrs using Annexin-V/PI staining by flow cytometry (reference value: 91.0 %); type: functional; conditions: A549, 24 h, read-out: Activity
A549 [18] = test: Induction of apoptosis in human A549 cells assessed as late apoptotic cells at 0.1 uM after 24 hrs using Annexin-V/PI staining by flow cytometry (reference value: 4.01 %); type: functional
A549 [19] = test: Cell cycle arrest in human A549 cells assessed as accumulation at S phase at 0.05 uM after 48 hrs by flow cytometry (reference value: 13.83 %); type: functional
A549 [20] = test: Induction of apoptosis in human A549 cells assessed as early apoptotic cells at 0.1 uM after 24 hrs using Annexin-V/PI staining by flow cytometry (reference value: 1.92 %); type: functional
A549 [21] = test: Cell cycle arrest in human A549 cells assessed as accumulation at G2 phase at 0.1 uM after 48 hrs by flow cytometry (reference value: 6.75 %); type: functional
A549 [22] = test: Cell cycle arrest in human A549 cells assessed as G2/M arrest after 48 hrs by flow cytometry; type: functional, cell-based
A549 [23] = test: Induction of apoptosis in human A549 cells assessed as late apoptotic cells at 0.05 uM after 24 hrs using Annexin-V/PI staining by flow cytometry (reference value: 4.01 %); type: functional

Structure (SMILES): COc1cc(/C=C/c2nnc(NC(=O)c3cccc(O)c3)s2)cc(OC)c1OC
pIC50 (HepG2): 6.59
pIC50 (MCF7): 6.34
IC50 (Tubulin): 23670 nM
pIC50 (A549 [1]): 6.72

Structure (SMILES): COc1ccc(/C=C/c2nnc(NC(=O)c3cc(OC)c(OC)c(OC)c3Br)s2)cc1
pIC50 (HepG2): 6.68
pIC50 (MCF7): 6.26
IC50 (Tubulin): 28580 nM
pIC50 (A549 [1]): 6.74

Structure (SMILES): COc1ccc(/C=C/c2nnc(NC(=O)c3ccccc3OC)s2)cc1OC
pIC50 (HepG2): 6.59
pIC50 (MCF7): 6.27
IC50 (Tubulin): 29440 nM
pIC50 (A549 [1]): 6.77

Structure (SMILES): COc1ccc(/C=C/c2nnc(NC(=O)c3cc(OC)c(OC)c(OC)c3)s2)cc1OC
pIC50 (HepG2): 6.66
pIC50 (MCF7): 6.25
IC50 (Tubulin): 28060 nM
pIC50 (A549 [1]): 6.80

Structure (SMILES): COc1ccc(C(=O)Nc2nnc(/C=C/c3cc(OC)c(OC)c(OC)c3Br)s2)cc1
pIC50 (HepG2): 6.66
pIC50 (MCF7): 6.25
IC50 (Tubulin): 18790 nM
pIC50 (A549 [1]): 6.82

Structure (SMILES): COc1cc(/C=C/c2nnc(NC(=O)c3ccccc3Br)s2)c(Br)c(OC)c1OC
pIC50 (HepG2): 6.60
pIC50 (MCF7): 6.43
IC50 (Tubulin): 19450 nM
pIC50 (A549 [1]): 6.68

Structure (SMILES): COc1cc(C(=O)Nc2nnc(/C=C/c3cc(OC)c(OC)c(OC)c3Br)s2)cc(OC)c1OC
pIC50 (HepG2): 6.68
pIC50 (MCF7): 6.29
IC50 (Tubulin): 16950 nM
pIC50 (A549 [1]): 6.85

Structure (SMILES): COc1ccc(/C=C\c2cc(OC)c(OC)c(OC)c2)cc1O [COMBRETASTATIN A4]
pIC50 (HepG2): 6.80

Structure (SMILES): COc1cc(/C=C/c2nnc(NC(=O)c3ccc(F)cc3)s2)c(Br)c(OC)c1OC
pIC50 (HepG2): 6.62
pIC50 (MCF7): 6.42
IC50 (Tubulin): 15630 nM
pIC50 (A549 [1]): 6.72

Structure (SMILES): COc1cc(/C=C/c2nnc(NC(=O)c3cc(OC)c(OC)c(OC)c3)s2)cc(OC)c1OC
pIC50 (HepG2): 6.55
pIC50 (MCF7): 6.31
IC50 (Tubulin): 23940 nM
pIC50 (A549 [1]): 6.80

Structure (SMILES): COc1cc(/C=C/c2nnc(NC(=O)c3cccc(O)c3)s2)c(Br)c(OC)c1OC
pIC50 (HepG2): 6.66
pIC50 (MCF7): 6.44
IC50 (Tubulin): 13440 nM
pIC50 (A549 [1]): 6.92

Structure (SMILES): COc1ccc(C(=O)Nc2nnc(/C=C/c3cc(OC)c(OC)c(OC)c3)s2)cc1OC
pIC50 (HepG2): 6.60
pIC50 (MCF7): 6.32
IC50 (Tubulin): 15500 nM
pIC50 (A549 [1]): 6.89

Structure (SMILES): COc1cccc(/C=C/c2nnc(NC(=O)c3cc(OC)c(OC)c(OC)c3Br)s2)c1
pIC50 (HepG2): 6.68
pIC50 (MCF7): 6.23
IC50 (Tubulin): 30360 nM
pIC50 (A549 [1]): 6.72

Structure (SMILES): COc1ccccc1C(=O)Nc1nnc(/C=C/c2cc(OC)c(OC)c(OC)c2Br)s1
pIC50 (HepG2): 6.64
pIC50 (MCF7): 6.22
IC50 (Tubulin): 17910 nM
pIC50 (A549 [1]): 6.77

Structure (SMILES): COc1cccc(C(=O)Nc2nnc(/C=C/c3cc(OC)c(OC)c(OC)c3)s2)c1
pIC50 (HepG2): 6.57
pIC50 (MCF7): 6.32
IC50 (Tubulin): 22500 nM
pIC50 (A549 [1]): 6.82

The remaining compounds from weak to strong by pIC50 (HepG2), led by results:

pIC50 (HepG2): 6.70
pIC50 (MCF7): 6.33
IC50 (Tubulin): 16790 nM
pIC50 (A549 [1]): 6.89
Structure (SMILES): COc1cc(/C=C/c2nnc(NC(=O)c3cc(OC)c(OC)c(OC)c3Br)s2)c(Br)c(OC)c1OC

pIC50 (HepG2): 6.70
pIC50 (MCF7): 6.49
IC50 (Tubulin): 15090 nM
pIC50 (A549 [1]): 6.80
Structure (SMILES): COc1cc(/C=C/c2nnc(NC(=O)c3ccc(Br)cc3)s2)c(Br)c(OC)c1OC

pIC50 (HepG2): 6.74
pIC50 (MCF7): 6.54
IC50 (Tubulin): 9830 nM
pIC50 (A549 [1]): 6.96
Structure (SMILES): COc1cc(/C=C/c2nnc(NC(=O)c3ccccc3)s2)c(Br)c(OC)c1OC

pIC50 (HepG2): 6.74
pIC50 (MCF7): 6.55
IC50 (Tubulin): 11810 nM
pIC50 (A549 [1]): 6.85
Structure (SMILES): COc1cc(/C=C/c2nnc(NC(=O)c3ccc(Cl)cc3)s2)c(Br)c(OC)c1OC

pIC50 (HepG2): 6.77
pIC50 (MCF7): 6.47
IC50 (Tubulin): 7080 nM
pIC50 (A549 [1]): 7.10
Structure (SMILES): COc1cc(/C=C/c2nnc(NC(=O)c3cccc(F)c3)s2)c(Br)c(OC)c1OC

pIC50 (HepG2): 6.80
pIC50 (MCF7): 6.59
IC50 (Tubulin): 6020 nM
pIC50 (A549 [1]): 7.10
Structure (SMILES): COc1cc(/C=C/c2nnc(NC(=O)c3cccc(Br)c3)s2)c(Br)c(OC)c1OC

pIC50 (HepG2): 6.82
pIC50 (MCF7): 6.64
IC50 (Tubulin): 5680 nM
pIC50 (A549 [1]): 7.15
Structure (SMILES): COc1cc(/C=C/c2nnc(NC(=O)c3cccc(Cl)c3)s2)c(Br)c(OC)c1OC

pIC50 (HepG2): 6.92
pIC50 (MCF7): 6.77
IC50 (Tubulin): 3080 nM
pIC50 (A549 [1]): 7.22
Structure (SMILES): COc1cccc(C(=O)Nc2nnc(/C=C/c3cc(OC)c(OC)c(OC)c3Br)s2)c1

pIC50 (HepG2): 7.30
pIC50 (MCF7): 7.22
IC50 (Tubulin): 1730 nM
pIC50 (A549 [1]): 7.52
Structure (SMILES): COc1ccc(C(=O)Nc2nnc(/C=C/c3cc(OC)c(OC)c(OC)c3Br)s2)cc1OC
Activity (A549 [2]): 7.14%
Activity (A549 [3]): 3.86%
Activity (A549 [4]): 19.68%
Activity (A549 [5]): 4.08%
Activity (A549 [6]): 7.96%
viability at 0.05 µM (A549 [7]): 77.8%
Activity (A549 [8]): 10.74%
Activity (A549 [9]): 37.17%
Activity (A549 [10]): 3.21%
Activity (A549 [11]): 3.41%
Activity (A549 [12]): 0%
Activity (A549 [13]): 5.48%
viability at 0.01 µM (A549 [14]): 84.8%
Activity (A549 [15]): 53.34%
Activity (A549 [16]): 73.18%
viability at 0.1 µM (A549 [17]): 61.8%
Activity (A549 [18]): 22%
Activity (A549 [19]): 9.49%
Activity (A549 [20]): 12.9%
Activity (A549 [21]): 89.26%
Activity (A549 [22]): Dose-dependent effect
Activity (A549 [23]): 12.7%
